Measured values reported in PubChem BioAssay AID1963431 (Molecular Pharmacology Branch, DTP, NCI, 2024).
Values joined by “and” are separate entries in the source; they are usually repeats but may differ in a detail not shown here. Equal values may be shown once.

System: Rh18 complex spheroid viability, percent test/control
Experiment: Anticancer human tumor Rh18 cell line growth inhibition [Asc];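 also: spheroids exposed to compound for 7 days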;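 as to viability, T/C: 100% = DMSO vehicle control wells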
Settings: for viability, T/C: stronger effect = lower value; active = viability on the fitted dose curve at most 10% of control; inactive = the rest
In short: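 Spheroid model: tumor line + HUVEC + hMSC. Single agents and combinations; top conc. at/near clinical Cmax (10 microM if undetermined), half-log dilutions. DMSO stocks at 800-fold test concentration.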

[1] = curve of first compound, second compound 0.03 µM
[2] = curve of first compound, second compound 0.0949 µM
[3] = curve of first compound, second compound 0.3 µM
[4] = curve of first compound, second compound 0.949 µM
[5] = curve of first compound, second compound 3 µM
[6] = second compound 0.03 µM, first compound 0.00316 µM
[7] = second compound 0.03 µM, first compound 0.01 µM
[8] = second compound 0.03 µM, first compound 0.0316 µM
[9] = second compound 0.03 µM, first compound 0.1 µM
[10] = second compound 0.03 µM, first compound 0.316 µM
[11] = second compound 0.03 µM, first compound 1 µM
[12] = second compound 0.0949 µM, first compound 0.00316 µM
[13] = second compound 0.0949 µM, first compound 0.01 µM
[14] = second compound 0.0949 µM, first compound 0.0316 µM
[15] = second compound 0.0949 µM, first compound 0.1 µM
[16] = second compound 0.0949 µM, first compound 0.316 µM
[17] = second compound 0.0949 µM, first compound 1 µM
[18] = second compound 0.3 µM, first compound 0.00316 µM
[19] = second compound 0.3 µM, first compound 0.01 µM
[20] = second compound 0.3 µM, first compound 0.0316 µM
[21] = second compound 0.3 µM, first compound 0.1 µM
[22] = second compound 0.3 µM, first compound 0.316 µM
[23] = second compound 0.3 µM, first compound 1 µM
[24] = second compound 0.949 µM, first compound 0.00316 µM
[25] = second compound 0.949 µM, first compound 0.01 µM
[26] = second compound 0.949 µM, first compound 0.0316 µM
[27] = second compound 0.949 µM, first compound 0.1 µM
[28] = second compound 0.949 µM, first compound 0.316 µM
[29] = second compound 0.949 µM, first compound 1 µM
[30] = second compound 3 µM, first compound 0.00316 µM
[31] = second compound 3 µM, first compound 0.01 µM
[32] = second compound 3 µM, first compound 0.0316 µM
[33] = second compound 3 µM, first compound 0.1 µM
[34] = second compound 3 µM, first compound 0.316 µM
[35] = second compound 3 µM, first compound 1 µM

CCN1CCN(Cc2ccc(Nc3ncc(F)c(-c4cc(F)c5nc(C)n(C(C)C)c5c4)n3)nc2)CC1 + CCN1C(C(=O)NC23CCC(C(=O)O)(CC2)CC3)C(c2cccc(Cl)c2F)C2(C(=O)Nc3cc(Cl)ccc32)C12CCCCC2
< 3.16 nM: IC50 [1] | IC50 [2] | IC50 [3] | IC50 [4] | IC50 [5]
inactive: viability, T/C [6] 42.9% | viability, T/C [7] 39.7% | viability, T/C [8] 41.4% | viability, T/C [9] 38.6% | viability, T/C [10] 46.5% | viability, T/C [11] 56.1% | viability, T/C [12] 25.2% | viability, T/C [13] 24.9% | viability, T/C [14] 26.3% | viability, T/C [15] 29.5% | viability, T/C [16] 34.6% | viability, T/C [17] 56.7% | viability, T/C [18] 11.7% | viability, T/C [19] 12.9% | viability, T/C [20] 14% | viability, T/C [21] 14.4% | viability, T/C [22] 14.2% | viability, T/C [23] 19.8% | viability, T/C [24] 9.3% | viability, T/C [25] 8.54% | viability, T/C [26] 10.2% | viability, T/C [27] 11.4% | viability, T/C [28] 10.6% | viability, T/C [29] 14.6%
active: viability, T/C [30] 8.98% | viability, T/C [31] 7.11% | viability, T/C [32] 8.3% | viability, T/C [33] 7.8% | viability, T/C [34] 8.59% | viability, T/C [35] 13.3%

O=C(c1ccc(F)c(F)c1Nc1ccc(I)cc1F)N1CC(O)([C@@H]2CCCCN2)C1 + CCN1C(C(=O)NC23CCC(C(=O)O)(CC2)CC3)C(c2cccc(Cl)c2F)C2(C(=O)Nc3cc(Cl)ccc32)C12CCCCC2
active: viability, T/C [16] 7.94% | viability, T/C [17] 1.48% | viability, T/C [20] 10.7% | viability, T/C [21] 8.42% | viability, T/C [22] 3.11% | viability, T/C [23] 1.29% | viability, T/C [25] 11.2% | viability, T/C [26] 9.23% | viability, T/C [27] 5.03% | viability, T/C [28] 0.89% | viability, T/C [29] 0.92% | viability, T/C [31] 11.4% | viability, T/C [32] 10.8% | viability, T/C [33] 2.33% | viability, T/C [34] 0.83% | viability, T/C [35] 1.01%
< 3.16 nM: IC50 [1] | IC50 [2] | IC50 [3] | IC50 [4] | IC50 [5]
inactive: viability, T/C [6] 35.4% | viability, T/C [7] 36.8% | viability, T/C [8] 31.1% | viability, T/C [9] 33.5% | viability, T/C [10] 23.8% | viability, T/C [11] 6.29% | viability, T/C [12] 22.7% | viability, T/C [13] 20.1% | viability, T/C [14] 20.1% | viability, T/C [15] 13.9% | viability, T/C [18] 13% | viability, T/C [19] 11.5% | viability, T/C [24] 9.01% | viability, T/C [30] 8.3%

Cc1nc(N2CCC3(CC2)COC(C)C3N)c(CO)nc1Sc1ccnc(N)c1Cl (stereo not drawn) + CCN1C(C(=O)NC23CCC(C(=O)O)(CC2)CC3)C(c2cccc(Cl)c2F)C2(C(=O)Nc3cc(Cl)ccc32)C12CCCCC2
< 9.49 nM: IC50 [1] | IC50 [2] | IC50 [3] | IC50 [4] | IC50 [5]
active: viability, T/C (second compound 0.0949 µM, first compound 0.949 µM) 10% | viability, T/C (second compound 0.0949 µM, first compound 3 µM) 5.48% | viability, T/C (second compound 0.3 µM, first compound 0.03 µM) 11.8% | viability, T/C (second compound 0.3 µM, first compound 0.0949 µM) 7.08% | viability, T/C (second compound 0.3 µM, first compound 0.3 µM) 6.62% | viability, T/C (second compound 0.3 µM, first compound 0.949 µM) 4.84% | viability, T/C (second compound 0.3 µM, first compound 3 µM) 3.71% | viability, T/C (second compound 0.949 µM, first compound 0.00949 µM) 7.44% | viability, T/C (second compound 0.949 µM, first compound 0.03 µM) 6.92% | viability, T/C (second compound 0.949 µM, first compound 0.0949 µM) 5.92% | viability, T/C (second compound 0.949 µM, first compound 0.3 µM) 4.76% | viability, T/C (second compound 0.949 µM, first compound 0.949 µM) 3.46% | viability, T/C (second compound 0.949 µM, first compound 3 µM) 1.83% | viability, T/C (second compound 3 µM, first compound 0.00949 µM) 5.58% | viability, T/C (second compound 3 µM, first compound 0.03 µM) 7.16% | viability, T/C (second compound 3 µM, first compound 0.0949 µM) 4.62% | viability, T/C (second compound 3 µM, first compound 0.3 µM) 3.55% | viability, T/C (second compound 3 µM, first compound 0.949 µM) 3.01% | viability, T/C (second compound 3 µM, first compound 3 µM) 1.74%
inactive: viability, T/C (second compound 0.03 µM, first compound 0.00949 µM) 27% | viability, T/C (second compound 0.03 µM, first compound 0.03 µM) 25.9% | viability, T/C (second compound 0.03 µM, first compound 0.0949 µM) 21.3% | viability, T/C (second compound 0.03 µM, first compound 0.3 µM) 17.6% | viability, T/C (second compound 0.03 µM, first compound 0.949 µM) 12.5% | viability, T/C (second compound 0.03 µM, first compound 3 µM) 10.6% | viability, T/C (second compound 0.0949 µM, first compound 0.00949 µM) 15.7% | viability, T/C (second compound 0.0949 µM, first compound 0.03 µM) 14.1% | viability, T/C (second compound 0.0949 µM, first compound 0.0949 µM) 12.6% | viability, T/C (second compound 0.0949 µM, first compound 0.3 µM) 10.3% | viability, T/C (second compound 0.3 µM, first compound 0.00949 µM) 10.6%

CCN1CCN(Cc2ccc(Nc3ncc(F)c(-c4cc(F)c5nc(C)n(C(C)C)c5c4)n3)nc2)CC1 + CNC(C)C(=O)NC1CN(S(=O)(=O)c2cccc(S(=O)(=O)N3CCC4CCC(C(=O)NC(c5ccccc5)c5ccccc5)N4C(=O)C(NC(=O)C(C)NC)C3)c2)CCC2CCC(C(=O)NC(c3ccccc3)c3ccccc3)N2C1=O
< 3.16 nM: IC50 (curve of first compound, second compound 0.01 µM) | IC50 (curve of first compound, second compound 0.0316 µM) | IC50 (curve of first compound, second compound 0.1 µM) | IC50 (curve of first compound, second compound 0.316 µM) | IC50 (curve of first compound, second compound 1 µM)
inactive: viability, T/C (second compound 0.01 µM, first compound 0.00316 µM) 57% | viability, T/C (second compound 0.01 µM, first compound 0.01 µM) 50% | viability, T/C (second compound 0.01 µM, first compound 0.0316 µM) 39.2% | viability, T/C (second compound 0.01 µM, first compound 0.1 µM) 40.6% | viability, T/C (second compound 0.01 µM, first compound 0.316 µM) 58.6% | viability, T/C (second compound 0.01 µM, first compound 1 µM) 86.7% | viability, T/C (second compound 0.0316 µM, first compound 0.00316 µM) 47.7% | viability, T/C (second compound 0.0316 µM, first compound 0.01 µM) 46.1% | viability, T/C (second compound 0.0316 µM, first compound 0.0316 µM) 39.6% | viability, T/C (second compound 0.0316 µM, first compound 0.1 µM) 38% | viability, T/C (second compound 0.0316 µM, first compound 0.316 µM) 48.7% | viability, T/C (second compound 0.0316 µM, first compound 1 µM) 90.9% | viability, T/C (second compound 0.1 µM, first compound 0.00316 µM) 47.1% | viability, T/C (second compound 0.1 µM, first compound 0.01 µM) 47.5% | viability, T/C (second compound 0.1 µM, first compound 0.0316 µM) 35.2% | viability, T/C (second compound 0.1 µM, first compound 0.1 µM) 40.1% | viability, T/C (second compound 0.1 µM, first compound 0.316 µM) 48.3% | viability, T/C (second compound 0.1 µM, first compound 1 µM) 53.8% | viability, T/C (second compound 0.316 µM, first compound 0.00316 µM) 59.2% | viability, T/C (second compound 0.316 µM, first compound 0.01 µM) 47.2% | viability, T/C (second compound 0.316 µM, first compound 0.0316 µM) 38.3% | viability, T/C (second compound 0.316 µM, first compound 0.1 µM) 35.7% | viability, T/C (second compound 0.316 µM, first compound 0.316 µM) 44.4% | viability, T/C (second compound 0.316 µM, first compound 1 µM) 67.4% | viability, T/C (second compound 1 µM, first compound 0.00316 µM) 34.7% | viability, T/C (second compound 1 µM, first compound 0.01 µM) 30% | viability, T/C (second compound 1 µM, first compound 0.0316 µM) 30.6% | viability, T/C (second compound 1 µM, first compound 0.1 µM) 29.5% | viability, T/C (second compound 1 µM, first compound 0.316 µM) 38.7% | viability, T/C (second compound 1 µM, first compound 1 µM) 60.7%

CCN1C(C(=O)NC23CCC(C(=O)O)(CC2)CC3)C(c2cccc(Cl)c2F)C2(C(=O)Nc3cc(Cl)ccc32)C12CCCCC2 (stereo not drawn)
< 30 nM: IC50 (compound alone, run of 10/11/2022)
inactive: viability, T/C (compound 0.00949 µM) 53.3% and 52.8% | viability, T/C (compound 0.03 µM) 38.3% [middle of 15 runs] | viability, T/C (compound 0.0949 µM) 21.1% [middle of 15 runs]
13% [middle of 15 runs]: viability, T/C (compound 0.3 µM)
17.8 nM and 11.6 nM: IC50 (curve of compound)
9.56% [middle of 15 runs]: viability, T/C (compound 0.949 µM)
9.14% [middle of 15 runs]: viability, T/C (compound 3 µM)
